Source: patent US8614213B2 (Novartis AG, priority 2008, dated 2013)

Biological target: human recombinant CRF-1 receptor (Homo sapiens (Human), UniProt P34998)
Assay: CRF-1 receptor antagonism, HTRF cAMP assay in CHO cells in the presence of 1 nM CRF
Type: cell-based
Settings: CHO cells expressing human recombinant CRF-1
Description: The CRF-1 or CRF-2a receptor antagonistic activity of the agents of the invention has been determined in vitro in the following assay:
Chinese hamster ovary (CHO) cells expressing either the human recombinant CRF-1 or CRF-2a receptors (Chen et al., Proc Natl Acad Sci USA 90, 8967-8971, 1993; Liaw et al., Endocrinology 137, 72-77, 1996) are propagated in Dulbecco's modified Eagle medium supplemented with 10% foetal calf serum, non-essential amino acids, 100 U/ml penicillin, 100 mg/l streptomycin and 1 g/l geneticin (G418). For cyclic AMP determinations the Homogeneous Time-Resolved Fluoresce (HTRF) cAMP dynamic 2 kit (Cisbio International, France) was used as per manufacturers' instructions. CHO cells, previously cryopreserved, were thawed, centrifuged for 7 mins at 1200 rpm and resuspended in serum free media, then pipetted out onto clear bottomed black tissue culture treated 384-well microtitre plates (Corning Inc, US) at 2,000 cells per well. Compounds of the invention, prepared in DMSO, and subsequently diluted 50 fold in assay buffer (1× Hanks balanced salt solution, 0.2% (w/v) bovine serum albumin, 1.7 mM isobutylmethylxanthine and 10 mM Hepes, pH7.4) are then added onto the cell containing plate where a further 2 fold dilution is performed and incubated for 15 min. Following incubation, buffer containing a 5 times final concentration of agonist is added to the plate and incubated for 30 min. Finally, d2 dye labelled cAMP and cryptate labeled anti-cAMP antibody, both made in lysis buffer, are added to the plate followed by a settling period of 1 hour. During the settling period cAMP produced by the cells competes with the d2 labelled cAMP for the anti-cAMP cryptate. The plate is read on the Pherastar (BMG, Germany). […] Values represented by a change in arbitrary fluorescence units are converted into cAMP concentrations by use of a standard curve the reagents for which are supplied with the kit. […] IC50 values of antagonists are calculated by fitting the percent inhibition of the effect of CRF by increasing concentrations of the antagonists. […]

human recombinant CRF-1 receptor, sequence (P34998 24-415): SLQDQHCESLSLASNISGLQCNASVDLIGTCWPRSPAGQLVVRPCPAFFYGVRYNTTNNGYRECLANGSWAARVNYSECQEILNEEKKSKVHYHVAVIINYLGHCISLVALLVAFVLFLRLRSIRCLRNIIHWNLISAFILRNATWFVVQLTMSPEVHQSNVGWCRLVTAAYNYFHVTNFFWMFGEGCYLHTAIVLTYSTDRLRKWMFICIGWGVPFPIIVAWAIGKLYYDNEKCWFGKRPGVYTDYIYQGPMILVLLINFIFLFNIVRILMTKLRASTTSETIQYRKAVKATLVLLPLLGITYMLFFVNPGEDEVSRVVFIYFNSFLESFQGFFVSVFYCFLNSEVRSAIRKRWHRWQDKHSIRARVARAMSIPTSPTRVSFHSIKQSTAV

Compound	IC50
2-Chloro-N-(2RS-methyl-4-phenylaminomethyl-cyclohexyl)-5-trifluoromethyl-benzamide [Example 16]	0.051 µM
Cc1cc(N2CCNC2=O)nn1C[C@H]1CC[C@H](NC(=O)c2cc(C(F)(F)F)ccc2Cl)CC1 [Example 21.5, 2-Chloro-N-{4-[5-methyl-3-(2-oxo-imi-dazolidin-1-yl)-pyrazol-1-ylmethyl]-cyclohexyl}-5-trifluoromethyl-ben zamide]	0.157 µM
Cc1nn(C[C@H]2CC[C@H](NC(=O)c3cc(C(F)(F)F)ccc3Cl)CC2)c(C)c1C [Example 21.11]	0.14 µM
